From US5861274A, “Nucleic acids encoding peroxisome proliferator-activated receptor” (The Salk Institute for Biological Studies, priority 1995, dated 1999)
Entries after “also recorded” stand apart in the source; their conditions may differ.

Assays:
PPARα = molecular target: T1, PPARα (Mus musculus, UniProt P23204); test: Cotransfection assay, PPRE3-TK-LUC reporter with CMX-PPARα; assay type: cell-based; settings: CV-1 cells; for rank order of efficacy of activation, PPARα: FIG. 4, 5 μM Wy 14,643, 30 μM linoleic acid, 30 μM LY-171883
T1 sequence (P23204 1-468): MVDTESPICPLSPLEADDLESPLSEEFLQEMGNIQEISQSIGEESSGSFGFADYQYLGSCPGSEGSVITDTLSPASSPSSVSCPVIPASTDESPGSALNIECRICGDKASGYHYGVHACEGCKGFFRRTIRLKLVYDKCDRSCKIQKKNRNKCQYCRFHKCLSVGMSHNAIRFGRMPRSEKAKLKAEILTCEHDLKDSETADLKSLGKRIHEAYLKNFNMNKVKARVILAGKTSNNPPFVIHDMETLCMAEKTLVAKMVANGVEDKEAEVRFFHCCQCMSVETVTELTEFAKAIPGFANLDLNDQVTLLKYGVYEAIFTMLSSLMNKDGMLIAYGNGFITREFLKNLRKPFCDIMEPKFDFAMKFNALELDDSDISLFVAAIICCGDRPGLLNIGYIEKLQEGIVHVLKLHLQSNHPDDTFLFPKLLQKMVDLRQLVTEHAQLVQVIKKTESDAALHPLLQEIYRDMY
Description: (§1) The mammalian expression vectors pCMX-PPARα, pCMX-PPARγ and pCMX-PPARδ were constructed by inserting the cDNA inserts of PPARα, PPARγ, and PPARδ into pCMX as previously described by Umesono et al., in Cell 65:1255-1266 (1991)). Construction of the reporter PPRE3 -TK-LUC has also been previously described by Kliewer et al., (1992) supra. Cotransfection assays in CV-1 cells were done in 48 well plates using N-[1-(2,3-dioleoyloxy)-propyl[N,N,N-trimethylammonium methyl sulfate (DOTAP) according to the manufacturer's instructions (Boehringer Mannheim). Transfections contained […] of receptor expression plasmid vector, 20 ng of the reporter PPRE3 -TK-LUC, 60 ng of pCMX-βGAL (β-galactosidase) as an internal control, and 210 ng of carrier plasmid pGEM. Cells were incubated in the presence of DOTAP for 8 hours, washed, and incubated in the presence of peroxisome proliferators or fatty acids for 36 hours. Cell extracts were prepared and assayed for luciferase and β-galactosidase activity as previously described (Umesono, supra). All experimental points were done in triplicate.

PPARγ = molecular target: T2, PPARγ (Mus musculus, UniProt P37238); test: Cotransfection assay, PPRE3-TK-LUC reporter with CMX-PPARγ; assay type: cell-based; settings: CV-1 cells; for activation of PPARγ (reporter expression), in words: 5 μM Wy 14,643, 30 μM linoleic acid or 30 μM LY-171883; for rank order of efficacy of activation, PPARγ: FIG. 4, 5 μM Wy 14,643, 30 μM linoleic acid, 30 μM LY-171883
T2 sequence (P37238 31-475 N383S): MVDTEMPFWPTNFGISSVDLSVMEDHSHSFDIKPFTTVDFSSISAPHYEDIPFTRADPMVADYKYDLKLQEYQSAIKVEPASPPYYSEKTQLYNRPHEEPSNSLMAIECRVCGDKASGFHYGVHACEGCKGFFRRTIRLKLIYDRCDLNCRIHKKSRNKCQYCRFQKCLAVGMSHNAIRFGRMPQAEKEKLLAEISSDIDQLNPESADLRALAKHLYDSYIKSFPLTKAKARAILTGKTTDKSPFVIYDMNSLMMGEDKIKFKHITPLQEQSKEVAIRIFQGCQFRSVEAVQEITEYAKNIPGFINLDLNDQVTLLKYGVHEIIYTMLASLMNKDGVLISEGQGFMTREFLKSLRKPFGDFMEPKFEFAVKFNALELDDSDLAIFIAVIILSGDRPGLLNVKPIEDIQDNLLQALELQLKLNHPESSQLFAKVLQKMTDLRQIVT
Description: Luciferase activities are presented as the fold activation achieved in compound-treated versus mock-treated cells. Similar results were obtained in triplicate in three independent experiments.
as §1

PPARδ = molecular target: T3, PPARδ (Mus musculus, UniProt P35396); test: Cotransfection assay, PPRE3-TK-LUC reporter with CMX-PPARδ; assay type: cell-based; settings: CV-1 cells; for activation of PPARδ (reporter expression), in words: 5 μM Wy 14,643, 30 μM linoleic acid or 30 μM LY-171883; for rank order of efficacy of activation, PPARδ: FIG. 4, 5 μM Wy 14,643, 30 μM linoleic acid, 30 μM LY-171883
T3 sequence (P35396 1-440): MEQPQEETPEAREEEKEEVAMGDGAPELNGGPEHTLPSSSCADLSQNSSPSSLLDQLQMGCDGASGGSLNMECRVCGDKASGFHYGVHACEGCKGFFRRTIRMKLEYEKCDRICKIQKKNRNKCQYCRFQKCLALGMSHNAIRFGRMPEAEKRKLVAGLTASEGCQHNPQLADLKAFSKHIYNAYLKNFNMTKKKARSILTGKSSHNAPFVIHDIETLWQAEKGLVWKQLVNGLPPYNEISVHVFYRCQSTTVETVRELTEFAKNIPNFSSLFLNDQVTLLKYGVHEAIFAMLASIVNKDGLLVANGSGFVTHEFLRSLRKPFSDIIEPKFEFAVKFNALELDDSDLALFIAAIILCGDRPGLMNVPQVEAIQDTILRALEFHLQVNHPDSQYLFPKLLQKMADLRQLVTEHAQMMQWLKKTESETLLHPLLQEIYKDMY
Description: as §1

PPARalpha (Mus musculus) = test: cell_activity; settings: activation by 5 uM Wy 14,643 in CV-1 cells

Compound	activation of PPARα (reporter expression), in words (PPARα; 5 μM Wy 14,643, 30 μM linoleic acid or 30 μM LY-171883)	rank order of efficacy of activation, PPARα (PPARα)	activation of PPARγ (reporter expression), in words (PPARγ)	rank order of efficacy of activation, PPARγ (PPARγ)	activation of PPARδ (reporter expression), in words (PPARδ)	rank order of efficacy of activation, PPARδ (PPARδ)	activity (PPARalpha (Mus musculus))
Cc1cccc(Nc2cc(Cl)nc(SCC(=O)O)n2)c1C [Wy 14,643]	most efficiently activated	Wy 14,643>LY-171883>linoleic acid	no activation; also recorded: fail 30 to respond; also recorded: fails to activate	LY 171883>linoleic acid>Wy 14,643	–	–	–
CCCc1c(OCCCCc2nnn[nH]2)ccc(C(C)=O)c1O [LY-171883]	–	Wy 14,643>LY-171883>linoleic acid	significant activation; also recorded: most efficiently activated	LY 171883>linoleic acid>Wy 14,643	strong activators	linoleic acid>LY-171883 and Wy 14,643	–
PPRE3-TK-LUC reporter	–	–	–	–	–	–	> 100 fold
CCCCC/C=C\C/C=C\CCCCCCCC(=O)O [linoleic acid]	–	Wy 14,643>LY-171883>linoleic acid	no activation	LY 171883>linoleic acid>Wy 14,643	strong activators; also recorded: most efficiently activated	linoleic acid>LY-171883 and Wy 14,643	–
